# How the values were obtained:
# [1] = Tested for the inhibition of nitric oxide syntheses in murine macrophage cell line RAW 264.7; type: cell-based
# RAW = test: Tested for the inhibition of nitric oxide syntheses in murine macrophage cell line RAW 264.7 at a concentration of 30 uM; type: cell-based
# L929 = test: Relative cytotoxicity measured as inhibition of LPS induced TNF alpha production in L929 cells at 10 uM; type: functional, Mus musculus; design: scale not given: the % may be the effect or the level left
# RAW264.7 = test: Tested for the inhibition of NO production in RAW 264.7 cells; type: functional, Mus musculus
Compound,IC50 [1] [µM],inhibition (RAW) [%],Activity (L929) [%],Inhibition (RAW264.7) [%]
COc1cc(OC)c([C@@H]2[C@@H](C)[C@H](C)[C@H]2c2cc(OC)c(OC)cc2OC)cc1OC,5.9,17,26,
COc1cc(OC)c([C@@H]2[C@H](C)[C@@H](C)[C@H]2c2cc(OC)c(OC)cc2OC)cc1OC [MAGNOSALIN],53.5,,84,
N=C(N)NN [PIMAGEDINE],,,,79

# Source: ChEMBL document CHEMBL1135074, “Two neolignans from Perilla frutescens and their inhibition of nitric oxide synthase and tumor necrosis factor-alpha expression in murine macrophage cell line RAW 264.7” (Bioorg Med Chem Lett, 2002)
